Source: patent US7439386B2, “Therapeutic substituted cyclopentanones” (Allergan, Inc., priority 2005, dated 2008)

Key:
rabbit = assay: Ocular surface hyperemia in rabbits; format: in vivo; conditions: 0.005%, score 0.5 trace, 1 mild, 2 moderate, 3 severe
Description: (§1) Ocular surface hyperemia was visually assessed and scored according to a system typically used clinically.
(§2) Ocular surface hyperemia was evaluated at the same time points as intraocular pressure measurement. It should be noted that untreated dog eyes frequently have a pink/red tone. Thus, values of trace or even mild are not necessarily out of the normal range. A similar procedure was used to determine rabbit hyperemia.

Beagle dogs [1] = assay: Ocular surface hyperemia in dogs; format: in vivo; conditions: 0.005% topical, score 0.5 trace, 1 mild, 2 moderate, 3 severe
Description: (§3) Intraocular pressure studies in dogs involved pneumatonometry performed in conscious, Beagle dogs of both sexes (10-15 kg). The animals remained conscious throughout the study and were gently restrained by hand. Drugs were administered topically to one eye as a 25 μL volume drop, the other eye received 25 μL vehicle (0.1% polysorbate 80:10 mM TRIS) as a control. Proparacaine (0.1%) was used for corneal anesthesia during tonometry. Intraocular pressure was determined just before drug administration and at 2, 4 and 6 hr thereafter on each day of the 5 day study. Drug was administered immediately after the first IOP reading.
as §1, §2

cynomolgus monkeys = assay: Intraocular pressure in cynomolgus monkeys; format: in vivo; conditions: 0.005% topical, single dose
Description: as §3
An analogous procedure was carried out with cynomolgus monkeys with measurements at 2, 4, 6, and 24 hours after a single dose.

Beagle dogs [2] = assay: Intraocular pressure in dogs (pneumatonometry); format: in vivo; conditions: 0.005% topical 25 μL drop, 5 day study
Description: as §3

hEP2/Gqs5 = target: T1, hEP2/Gqs5 (Homo sapiens, UniProt P43116); assay: FLIPR calcium signal, hEP2/Gqs5; format: cell-based; conditions: HEK-293(EBNA) cells, read-out: EP2 Ca2+ EC50
T1 construct: expressed in transfected cells
Description: (§4) HEK-293(EBNA) cells, stably expressing one type or subtype of recombinant human prostaglandin receptors (prostaglandin receptors expressed: hDP/Gqs5; hEP1; hEP2/Gqs5; hEP3A/Gqi5; hEP4/Gqs5; hFP; hIP; hTP), are cultured in 100 mm culture dishes in high-glucose DMEM medium containing 10% fetal bovine serum, 2 mM 1-glutamine, 250 μg/ml geneticin (G418) and 200 μg/ml hygromycin B as selection markers, and 100 units/ml penicillin G, 100 μg/ml streptomycin and 0.25 μg/ml amphotericin B.
(§5) Cells are seeded at a density of 5×10^4 cells per well in Biocoat® Poly-D-lysine-coated black-wall, clear-bottom 96-well plates (Becton-Dickinson) and allowed to attach overnight in an incubator at 37° C. Cells are then washed two times with HBSS-HEPES buffer (Hanks Balanced Salt Solution without bicarbonate and phenol red, 20 mM HEPES, pH 7.4) using a Denley Cellwash plate washer (Labsystems). After 45 minutes of dye-loading in the dark, using the calcium-sensitive dye Fluo-4 AM at a final concentration of 2 μM, plates are washed four times with HBSS-HEPES buffer to remove excess dye leaving 100 μl in each well. Plates are re-equilibrated to 37° C. for a few minutes.
(§6) Cells are excited with an Argon laser at 488 nm, and emission is measured through a 510-570 nm bandwidth emission filter (FLIPR™, Molecular Devices, Sunnyvale, Calif.). Drug solution is added in a 50 μl volume to each well to give the desired final concentration. The peak increase in fluorescence intensity is recorded for each well. On each plate, four wells each serve as negative (HBSS-HEPES buffer) and positive controls (standard agonists: BW245C (hDP); PGE2 (hEP1; hEP2/Gqs5; hEP3A/Gqi5; hEP4/Gqs5); PGF2α (hFP); carbacyclin ([…]); U-46619 (hTP), depending on receptor). The peak fluorescence change in each drug-containing well is then expressed relative to the controls.
(§7) Compounds are tested in a high-throughput (HTS) or concentration-response (CoRe) format. […]

EP2 receptor = target: T2, EP2 receptor (Homo sapiens, UniProt P43116); assay: Radioligand binding, EP2 receptor; conditions: [3H]PGE2 competition, HEK-293 membranes
T2 construct: expressed in transfected cells; membrane fraction
Description: (§8) HEK-293 cells stably expressing the human or feline FP receptor, or EP1, EP2, or EP4 receptors are washed with TME buffer, scraped from the bottom of the flasks, and homogenized for 30 sec using a Brinkman PT 10/35 polytron. TME buffer is added to achieve a final 40 ml volume in the centrifuge tubes (the composition of TME is 100 mM TRIS base, 20 mM MgCl2, […]; 10N HCl is added to achieve a pH of 7.4).
(§9) The cell homogenate is centrifuged at 19000 r.p.m. for 20 min at 4° C. using a Beckman Ti-60 rotor. The resultant pellet is resuspended in TME buffer to give a final 1 mg/ml protein concentration, as determined by Biorad assay. Radioligand binding competition assays vs. [^3H—]17 phenyl PGF2α (5 nM) are performed in a 100 μl volume for 60 min. Binding reactions are started by adding plasma membrane fraction. The reaction is terminated by the addition of 4 ml ice-cold TRIS-HCl buffer and rapid filtration through glass fiber GF/B filters using a Brandel cell harvester. The filters are washed 3 times with ice-cold buffer and oven dried for one hour. Non-specific binding is determined with 10 uM unlabeled 17 phenyl PGF2α.
(§10) [^3H—] PGE2 (5 nM; specific activity 180 Ci mmol) is used as the radioligand for EP receptors. Binding studies employing EP1, EP2, EP3, EP4 are performed in duplicate in at least three separate experiments. A 200 μl assay volume is used. Incubations are for 60 min at 25° C. and are terminated by the addition of 4 ml of ice-cold 50 mM TRIS-HCl, followed by rapid filtration through Whatman GF/B filters and three additional 4 ml washes in a cell harvester (Brandel). Non-specific binding is determined with 10^−5M of unlabeled PGE2.

hEP3A/Gqi5 = target: T3, hEP3A/Gqi5 (Homo sapiens, UniProt P43115); assay: FLIPR calcium signal, hEP3A/Gqi5; format: cell-based; conditions: HEK-293(EBNA) cells, read-out: OTHER RECEPTORS Ca2+ EC50: EP3
T3 construct: expressed in transfected cells
T3 sequence (P43115 1-390): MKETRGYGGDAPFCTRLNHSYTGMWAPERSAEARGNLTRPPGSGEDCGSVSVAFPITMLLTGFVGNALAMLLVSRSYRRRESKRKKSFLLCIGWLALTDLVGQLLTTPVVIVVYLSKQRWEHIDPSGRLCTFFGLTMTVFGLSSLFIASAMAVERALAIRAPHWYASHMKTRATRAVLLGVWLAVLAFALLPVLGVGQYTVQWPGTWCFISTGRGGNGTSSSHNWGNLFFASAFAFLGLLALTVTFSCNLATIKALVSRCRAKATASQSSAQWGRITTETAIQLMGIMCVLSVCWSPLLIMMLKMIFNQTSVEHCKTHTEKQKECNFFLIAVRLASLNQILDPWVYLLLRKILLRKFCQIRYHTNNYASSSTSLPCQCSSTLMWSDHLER
Description: as §4, §5, §6, §7

EP4 receptor = target: T4, EP4 receptor (Homo sapiens, UniProt P35408); assay: Radioligand binding, EP4 receptor; conditions: [3H]PGE2 competition, HEK-293 membranes
T4 construct: expressed in transfected cells; membrane fraction
Description: as §8, §9, §10

hEP4/Gqs5 = target: T5, hEP4/Gqs5 (Homo sapiens, UniProt P35408); assay: FLIPR calcium signal, hEP4/Gqs5; format: cell-based; conditions: HEK-293(EBNA) cells, read-out: EP4 Ca2+ EC50
T5 construct: expressed in transfected cells
Description: as §4, §5, §6
Compounds are tested in a high-throughput (HTS) or concentration-response (CoRe) format. In the HTS format, forty-four compounds per plate are examined in duplicates at a concentration of 10^−5 M. To generate concentration-response curves, four compounds per plate are tested in duplicates in a concentration range between 10^−5 and 10^−11 M. The duplicate values are averaged. In either, HTS or CoRe format each compound is tested on at least 3 separate plates using cells from different passages to give an n≧3.

T5 sequence (P35408 whole entry): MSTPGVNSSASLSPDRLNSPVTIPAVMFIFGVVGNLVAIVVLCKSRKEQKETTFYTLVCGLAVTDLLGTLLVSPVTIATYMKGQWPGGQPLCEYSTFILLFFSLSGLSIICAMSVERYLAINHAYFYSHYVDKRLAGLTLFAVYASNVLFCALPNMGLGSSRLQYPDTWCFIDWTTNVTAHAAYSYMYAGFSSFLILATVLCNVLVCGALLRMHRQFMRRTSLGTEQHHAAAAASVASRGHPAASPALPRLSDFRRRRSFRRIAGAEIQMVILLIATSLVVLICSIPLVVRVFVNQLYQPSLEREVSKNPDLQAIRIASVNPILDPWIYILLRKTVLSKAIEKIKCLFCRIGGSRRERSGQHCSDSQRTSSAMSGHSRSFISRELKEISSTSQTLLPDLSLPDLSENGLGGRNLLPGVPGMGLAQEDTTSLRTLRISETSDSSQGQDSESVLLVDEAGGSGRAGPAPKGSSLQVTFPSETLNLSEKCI
T4 sequence (P35408 whole entry): as above
T2 sequence (P43116 whole entry): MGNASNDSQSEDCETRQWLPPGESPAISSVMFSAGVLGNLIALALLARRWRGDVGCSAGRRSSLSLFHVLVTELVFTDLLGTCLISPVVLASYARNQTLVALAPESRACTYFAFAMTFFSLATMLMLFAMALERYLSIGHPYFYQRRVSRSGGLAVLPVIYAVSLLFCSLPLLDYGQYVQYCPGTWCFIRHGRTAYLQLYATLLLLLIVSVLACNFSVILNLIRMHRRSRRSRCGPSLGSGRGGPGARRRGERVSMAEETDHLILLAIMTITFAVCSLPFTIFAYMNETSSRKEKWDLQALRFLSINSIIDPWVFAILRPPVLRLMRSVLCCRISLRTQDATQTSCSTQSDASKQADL
T1 sequence (P43116 whole entry): as above

| Structure (SMILES) | Rabbit Max Hyperemia (rabbit) | Dog Max Hyperemia (Beagle dogs [1]) | EC50 (hEP2/Gqs5) | Ki (EP2 receptor) | EC50 (hEP3A/Gqi5) | Ki (EP4 receptor) | EC50 (hEP4/Gqs5) | Monkey Max ΔIOP (cynomolgus monkeys) | Dog Max ΔIOP (Beagle dogs [2]) |
| --- | --- | --- | --- | --- | --- | --- | --- | --- | --- |
| CC1(C)C(=O)[C@H](C/C=C\CCCC(=O)O)[C@@H](/C=C/C(O)CCc2ccc3ccccc3c2)[C@@H]1O (stereo partly drawn) | 0.1 | 1.3 | – | – | – | – | – | 8 mm Hg | 2 mm Hg |
| CC1(C)C(=O)[C@H](C/C=C\CCCC(=O)O)[C@@H](/C=C/C(O)CCc2ccc3ccccc3c2)[C@@H]1O (single isomer, unassigned) [drawing 23] | – | – | > 10000 nM | > 10000 nM | 4020 nM | 14 nM | 0.17 nM | – | – |
| CC1(C)C(=O)[C@H](C/C=C\CCCC(=O)O)[C@@H](/C=C/C(O)CCc2ccc3ccccc3c2)[C@@H]1O (single isomer, unassigned) [drawing 24] | – | – | > 10000 nM | 16900 nM | 1020 nM | 111 nM | 1.3 nM | – | – |

The next lines start with results.

| Rabbit Max Hyperemia (rabbit) | Dog Max Hyperemia (Beagle dogs [1]) | EC50 (hEP2/Gqs5) | Ki (EP2 receptor) | EC50 (hEP3A/Gqi5) | Ki (EP4 receptor) | EC50 (hEP4/Gqs5) | Structure (SMILES) | Monkey Max ΔIOP (cynomolgus monkeys) | Dog Max ΔIOP (Beagle dogs [2]) |
| --- | --- | --- | --- | --- | --- | --- | --- | --- | --- |
| – | – | – | 36200 nM | 1020 nM | 1240 nM | 16.3 nM | CC1(C)C(=O)[C@H](CC#CCCCC(=O)O)[C@@H](/C=C/C(O)CCc2ccc3ccccc3c2)[C@@H]1O (single isomer, unassigned) [drawing 25] | – | – |
| – | – | > 10000 nM | – | – | 1860 nM | 8 nM | CC1(C)C(=O)[C@H](CC#CCCCC(=O)O)[C@@H](/C=C/C(O)CCc2ccc3ccccc3c2)[C@@H]1O (single isomer, unassigned) [drawing 26] | – | – |
